This assay has as its target Adrenergic receptor alpha-1 (Rattus norvegicus) (UniProt P15823+P23944+P43140). Briefly: Compound was tested for antihypertensive activity mediated through Alpha-1 adrenergic receptor in anesthetized rat. The assay is classed as functional.

Molecules are shown by their SMILES.

For the compound `O=C1Nc2ccccc2C2=NC(CN3CCN(c4ccccc4)CC3)CN12` (stereo unspecified), the ED50 – broadly, the midpoint of the dose-response relation – worked out at 0.25 mg/kg.

For the origin of these results see ChEMBL document CHEMBL1125954, “Studies on quinazolinones. 3: 1 novel and efficient route to the synthesis of conformationally restricted analogues of ketanserin and SGB-1534 as antihypertensive agents” (Bioorg Med Chem Lett, 1991).
